Assay results published in patent US8552205B2, “Derivatives of 6,7-dihydro-5H-imidazo[1,2-alpha]imidazole-3-carboxylic acid amides” (Boehringer Ingelheim International GmbH, priority 2007, dated 2013).
pKd: −log10 of the molar value.

Assays:
[1] = tested on: IL-2 production in human whole blood stimulated with staphylococcal enterotoxin B; assay type: cell-based
[2] = target: T1, LFA-1 (CD18/CD11a) binding to ICAM-1 (Homo sapiens, UniProt P05107+P20701); assay: Assay to determine inhibition of LFA-1 binding to ICAM-1; conditions: immunopurified LFA-1 binding to plate-bound sICAM-1; read-out: LFA/ICAM1 Kd
T1 construct: LFA-1 is immunopurified using the TS2/4 antibody from a 20 g pellet of human JY or SKW3 cells; endogenous in cells; sICAM-1 made in house, secreted from transfected CHO DUX cells
T1 sequence (P20701 26-1170): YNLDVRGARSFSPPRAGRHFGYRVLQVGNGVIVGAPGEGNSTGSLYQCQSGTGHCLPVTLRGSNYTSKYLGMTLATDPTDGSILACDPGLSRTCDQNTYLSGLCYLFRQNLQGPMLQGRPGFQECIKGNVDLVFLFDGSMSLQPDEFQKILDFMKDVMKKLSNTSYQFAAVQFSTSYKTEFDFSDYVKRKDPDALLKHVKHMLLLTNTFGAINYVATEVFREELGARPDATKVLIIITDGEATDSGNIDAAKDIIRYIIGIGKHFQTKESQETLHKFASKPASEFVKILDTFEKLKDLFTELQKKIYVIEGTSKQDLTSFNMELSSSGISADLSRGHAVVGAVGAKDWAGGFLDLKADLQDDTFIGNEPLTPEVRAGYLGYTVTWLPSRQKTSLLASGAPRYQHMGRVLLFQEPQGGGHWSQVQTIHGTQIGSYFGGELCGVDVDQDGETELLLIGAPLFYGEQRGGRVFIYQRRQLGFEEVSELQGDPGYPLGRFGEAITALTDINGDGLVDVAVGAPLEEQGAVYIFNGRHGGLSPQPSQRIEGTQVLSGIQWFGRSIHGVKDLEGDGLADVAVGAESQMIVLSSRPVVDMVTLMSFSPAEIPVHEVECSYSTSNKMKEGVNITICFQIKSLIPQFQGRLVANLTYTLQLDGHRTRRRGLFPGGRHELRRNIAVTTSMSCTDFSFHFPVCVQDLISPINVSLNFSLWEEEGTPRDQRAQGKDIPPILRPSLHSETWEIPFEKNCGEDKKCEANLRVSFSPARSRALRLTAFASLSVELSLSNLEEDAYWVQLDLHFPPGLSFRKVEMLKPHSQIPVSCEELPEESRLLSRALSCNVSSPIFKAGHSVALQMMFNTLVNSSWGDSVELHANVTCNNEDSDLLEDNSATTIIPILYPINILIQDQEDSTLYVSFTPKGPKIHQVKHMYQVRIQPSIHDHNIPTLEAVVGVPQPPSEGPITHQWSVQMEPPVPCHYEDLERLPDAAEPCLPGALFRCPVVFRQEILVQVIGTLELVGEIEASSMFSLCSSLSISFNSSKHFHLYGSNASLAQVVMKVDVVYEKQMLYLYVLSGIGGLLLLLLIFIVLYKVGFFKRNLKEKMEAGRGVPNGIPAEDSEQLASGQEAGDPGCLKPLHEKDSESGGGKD
T1 sequence (P05107 23-769): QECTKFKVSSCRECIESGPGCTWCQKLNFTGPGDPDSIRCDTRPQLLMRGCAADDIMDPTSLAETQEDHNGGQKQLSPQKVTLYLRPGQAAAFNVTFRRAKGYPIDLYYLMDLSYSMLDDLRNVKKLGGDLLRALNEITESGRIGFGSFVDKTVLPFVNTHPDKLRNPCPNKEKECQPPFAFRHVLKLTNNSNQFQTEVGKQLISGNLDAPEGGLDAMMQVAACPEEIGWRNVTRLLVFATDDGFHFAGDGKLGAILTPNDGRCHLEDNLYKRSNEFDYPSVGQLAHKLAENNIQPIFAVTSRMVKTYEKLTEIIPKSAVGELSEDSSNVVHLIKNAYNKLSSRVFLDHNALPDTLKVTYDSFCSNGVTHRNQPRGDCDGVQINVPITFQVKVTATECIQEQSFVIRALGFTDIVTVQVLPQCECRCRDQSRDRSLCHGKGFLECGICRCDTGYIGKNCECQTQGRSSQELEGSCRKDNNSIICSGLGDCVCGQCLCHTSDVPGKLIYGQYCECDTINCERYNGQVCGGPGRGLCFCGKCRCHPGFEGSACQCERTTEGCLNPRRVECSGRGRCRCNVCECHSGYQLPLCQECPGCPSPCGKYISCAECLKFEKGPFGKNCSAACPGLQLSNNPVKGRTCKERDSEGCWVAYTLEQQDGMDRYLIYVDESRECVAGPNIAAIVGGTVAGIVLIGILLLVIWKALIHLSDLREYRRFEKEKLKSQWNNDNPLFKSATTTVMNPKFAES
Text: Assay to Determine Inhibition of LFA-1 Binding to ICAM-1
This assay protocol is designed to study the direct antagonism, by a test compound, of the interaction of ICAM-1 with the Leukointegrin CD18/CD11a (LFA-1).
LFA-1 is immunopurified using the TS2/4 antibody from a 20 g pellet of human JY or SKW3 cells, utilizing a protocol previously described (Dustin, M. J.; et al., J. Immunol. 1992, 148, 2654-2660). The LFA-1 is purified from SKW3 lysates by immunoaffinity chromatography on TS2/4 LFA-1 mAb Sepharose and eluted at pH 11.5 in the presence of 2 mM MgCl2 and 1% octylglucoside. After collection and neutralization of fractions from the TS2/4 column, samples are pooled and precleared with Protein G agarose.
A soluble form of ICAM-1 is constructed, expressed, purified and characterized as previously described (Marlin, S.; et al., Nature, 1990, 344, 70-72 and see Arruda, A.; et al., Antimicrob. Agents Chemother. 1992, 36, 1186-1192). Briefly, isoleucine 454 which is located at the putative boundary between domain 5 of the ectodomain and the transmembrane domain, is changed to a stop codon using standard oligonucleotide-directed mutagenesis. This construction yields a molecule identical with the first 453 amino acids of membrane bound ICAM-1. An expression vector is created with a hamster dihydrofolate reductase gene, a neomycin-resistance marker, and the coding region of the sICAM-1 construct described above, along with the promoter, splice signals, and polyadenylation signal of the SV40 early region. The recombinant plasmid is transfected into CHO DUX cells using standard calcium phosphate methods. Cells are passaged in selective media (G418) and colonies secreting sICAM-1 are amplified using methotrexate. sICAM-1 is purified from serum-free media using traditional non-affinity chromatographic techniques, including ion exchange and size exclusion chromatography.
LFA-1 binding to ICAM-1 is monitored by first incubating sICAM-1 at 40 μg/mL in Dulbecco's phosphate buffered saline with calcium and magnesium, additional 2 mM MgCl2 and 0.1 mM PMSF (Diluting Buffer) in a 96-well plate for 30 min at room temperature. Plates are then blocked by the addition of 2% (w/v) bovine serum albumin in Diluting Buffer for 37° C. for 1 h. Blocking solution is removed from wells, and test compounds are diluted and then added followed by the addition of approximately 25 ng of immunoaffinity purified LFA-1. The LFA-1 is incubated in the presence of test compound and ICAM-1 at 37° C. for 1 h. Wells are washed 3 times with Diluting Buffer. The bound LFA-1 is detected by the addition of a polyclonal antibody directed against a peptide corresponding to the CD18 cytoplasmic tail in a 1:100 dilution with Diluting Buffer and 1% BSA and allowed to incubate for 45 min at 37° C. Wells are washed 3 times with Diluting Buffer and the bound polyclonal antibody is detected by the addition of a 1:4000 dilution of horse radish peroxidase conjugated to goat immunoglobulin directed against rabbit immunoglobulin. This reagent is allowed to incubate for 20 min at 37° C., wells are washed as above and the substrate for the horse radish peroxidase is added to each well to develop a quantitative colorimetric signal proportional to the amount of LFA-1 bound to sICAM-1. Soluble ICAM-1 (60 μg/mL) is used as a positive control for inhibition of the LFA-1/ICAM-1 interaction. The lack of the addition of LFA-1 to the binding assay is used as a background control for all samples. A dose-response curve is obtained for all test compounds.

Structure (SMILES) | WB [1] [×] | pKd [2]
C[C@@]1(Cc2ccc(C#N)cc2)C(=O)N(c2cc(Cl)cc(Cl)c2)c2ncc(C(=O)NC3(C(=O)NC4(c5nnc(C6CC6)[nH]5)CC4)CC3)n21 [BI00659245, (R)-5-(4-Cyano-benzyl)-7-(3,5-dichloro-phenyl)-5-methyl-6-oxo-6,7-dihydro-5H-imidazo[1,2-a]imidazole-3-carboxylic acid {1-[1-(5-cyclopropyl-4H-1,2,4-triazol-3-yl)-cyclopropylcarbamoyl]-cyclopropyl}-amide] | 12 | 
C[C@H](NC(=O)c1cnc2n1[C@](C)(Cc1ccc(C#N)cc1)C(=O)N2c1cc(Cl)cc(Cl)c1)C(=O)N[C@H](C)c1ccccn1 [Compound 2] |  | 8.05
C[C@@]1(Cc2ccc(C#N)cc2)C(=O)N(c2cc(Cl)cc(Cl)c2)c2ncc(C(=O)NC3(C(=O)N4CC[C@@H](c5noc(=O)[nH]5)C4)CC3)n21 [Compound 9] |  | 8.34
CC(=O)N[C@H]1CCN(C(=O)C2(NC(=O)c3cnc4n3[C@](C)(Cc3ccc(C#N)cc3)C(=O)N4c3cc(Cl)cc(Cl)c3)CC2)C1 [Compound 12] |  | 8.27
C[C@H](NC(=O)c1cnc2n1[C@](C)(Cc1ccc(C#N)cc1)C(=O)N2c1cc(Cl)cc(Cl)c1)C(=O)N1CCC[C@@H](C(N)=O)C1 [Compound 13] |  | 8.62
C[C@H](NC(=O)c1cnc2n1[C@](C)(Cc1ccc(C#N)cc1)C(=O)N2c1cc(Cl)c(F)c(Cl)c1)C(=O)NC1(c2ccccn2)CC1 [Compound 55] |  | 8.00
C[C@@]1(Cc2ccc(C#N)cc2)C(=O)N(c2cc(Cl)c(F)c(Cl)c2)c2ncc(C(=O)NC3(C(=O)NC4(c5nccs5)CC4)CC3)n21 [Compound 60] |  | 7.89
C[C@@]1(Cc2ccc(C#N)cc2)C(=O)N(c2cc(Cl)c(F)c(Cl)c2)c2ncc(C(=O)NC3(C(=O)NC4(c5nnc[nH]5)CC4)CC3)n21 [Compound 62] |  | 8.15
C[C@@]1(Cc2ccc(C#N)cc2)C(=O)N(c2cc(Cl)cc(Cl)c2)c2ncc(C(=O)NC3(C(=O)NC4(C(N)=O)CC4)CC3)n21 [Compound 72] |  | 8.08
C[C@@]1(Cc2ccc(C#N)cc2)C(=O)N(c2cc(Cl)cc(Cl)c2)c2ncc(C(=O)NC3(C(=O)N[C@@H]4CC[C@H](C(N)=O)C4)CC3)n21 [Compound 105] |  | 7.62
C[C@@H](NC(=O)c1cnc2n1[C@](C)(Cc1ccc(C#N)cc1)C(=O)N2c1cc(Cl)cc(Cl)c1)C(=O)NC1(C(=O)O)CC1 [Compound 107] |  | 7.55
COC(=O)[C@H]1CC[C@@H](NC(=O)C2(NC(=O)c3cnc4n3[C@](C)(Cc3ccc(C#N)cc3)C(=O)N4c3cc(Cl)cc(Cl)c3)CC2)C1 [Compound 109] |  | 7.55
C[C@H](NC(=O)c1cnc2n1[C@](C)(Cc1ccc(C#N)cc1)C(=O)N2c1cc(Cl)cc(Cl)c1)C(=O)NC1CCC[C@H]1C(N)=O (stereo partly shown) [Compound 114] |  | 7.49
C[C@@H](NC(=O)c1cnc2n1[C@](C)(Cc1ccc(C#N)cc1)C(=O)N2c1cc(Cl)cc(Cl)c1)C(=O)Nc1ccnn1C [Compound 129] |  | 7.35
CC(=O)N1CCC(NC(=O)C2(NC(=O)c3cnc4n3[C@](C)(Cc3ccc(C#N)cc3)C(=O)N4c3cc(Cl)cc(Cl)c3)CC2)CC1 [Compound 143] |  | 7.15
C[C@@]1(Cc2ccc(C#N)cc2)C(=O)N(c2cc(Cl)cc(Cl)c2)c2ncc(C(=O)NC3(C(=O)N4CC[C@@H](O)C4)CC3)n21 [Compound 160] |  | 8.23
C[C@@]1(Cc2ccc(C#N)cc2)C(=O)N(c2cc(Cl)cc(Cl)c2)c2ncc(C(=O)NC3(C(=O)N4CCC(S(C)(=O)=O)C4)CC3)n21 (stereo partly shown) [Compound 185] |  | 7.62
CCN(C(C)=O)C1CCN(C(=O)C2(NC(=O)c3cnc4n3[C@](C)(Cc3ccc(OC(F)(F)F)cc3)C(=O)N4c3cc(Cl)cc(Cl)c3)CC2)C1 (stereo partly shown) [Compound 187] |  | 7.66
CC(=O)NC1CCCN(C(=O)C2(NC(=O)c3cnc4n3[C@](C)(Cc3ccc(C#N)cc3)C(=O)N4c3cc(Cl)cc(Cl)c3)CC2)C1 (stereo partly shown) [Compound 201] |  | 7.47
C[C@H](NC(=O)c1cnc2n1[C@](C)(Cc1ccc(C#N)cc1)C(=O)N2c1cc(Cl)cc(Cl)c1)C(=O)N1CCC[C@@H]1CO [Compound 215] |  | 7.41
C[C@H](NC(=O)c1cnc2n1[C@](C)(Cc1ccc(C#N)cc1)C(=O)N2c1cc(Cl)cc(Cl)c1)C(=O)NCCN1CCOCC1 [Compound 259] |  | 6.92
C[C@@H](NC(=O)c1cnc2n1[C@](C)(Cc1ccc(C#N)cc1)C(=O)N2c1cc(Cl)cc(Cl)c1)C(=O)Nc1nccs1 [Compound 286] |  | 7.00
